Reference: patent US20250136606A1, “MODULATORS OF TRPML, THEIR COMPOSITIONS AND METHODS OF USE” (Caraway Therapeutics, Inc., priority 2021, published 2025)
pEC50: −log10 of the molar value.

Assays:
Assay type in all cases: cell-based
Conditions in all cases: fluorescent calcium assay
[1] = target: TRPML1 (Homo sapiens, UniProt Q9GZU1); test: Fluorescent TRPML1 assay (Fluo4-AM calcium fluorescence in doxycycline-induced HEK-293 Trex cells)
Method in brief: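 HEK-293 Trex cells stably carrying human TRPML1 (surface-trafficking mutant) were induced overnight with 0.5 ug/mL doxycycline, loaded with 1 micromolar Fluo4-AM, and suspended in Ringer's with 10 mM calcium. Compounds at 20 micromolar to 6 nanomolar final, half-log steps, triplicate; fluorescence 480/540 nm gave percent activity versus controls and EC50 by non-linear regression.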

[2] = target: T1, TRPML2 (Homo sapiens, UniProt Q8IZK6); test: Fluorescent TRPML2 assay (performed as for TRPML1, substituting the TRPML2 subtype)
T1 construct: expressed in transfected cells
T1 sequence (Q8IZK6 1-566): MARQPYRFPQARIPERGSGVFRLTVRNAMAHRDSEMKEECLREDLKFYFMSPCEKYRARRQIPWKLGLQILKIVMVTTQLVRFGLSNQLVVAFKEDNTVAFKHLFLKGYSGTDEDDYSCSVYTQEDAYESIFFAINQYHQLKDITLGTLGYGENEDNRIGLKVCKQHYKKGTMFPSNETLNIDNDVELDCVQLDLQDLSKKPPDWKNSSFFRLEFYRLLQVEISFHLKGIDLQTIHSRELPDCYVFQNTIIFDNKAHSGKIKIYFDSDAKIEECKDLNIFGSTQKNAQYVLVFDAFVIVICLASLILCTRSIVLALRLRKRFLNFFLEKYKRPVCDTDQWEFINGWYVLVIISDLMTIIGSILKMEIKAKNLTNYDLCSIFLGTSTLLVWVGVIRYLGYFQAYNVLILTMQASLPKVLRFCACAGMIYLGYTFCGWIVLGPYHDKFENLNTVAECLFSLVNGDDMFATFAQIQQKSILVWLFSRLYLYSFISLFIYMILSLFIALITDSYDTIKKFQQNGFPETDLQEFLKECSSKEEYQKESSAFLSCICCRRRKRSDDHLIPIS
Method in brief: (§1)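 Compound series (final 6 nM-20 μM, half-log, triplicate) were added to Fluo4-AM-loaded HEK-293 Trex cells in 10 mM calcium Ringer's, expressing the human TRPML subtype after doxycycline 0.5 ug/mL induction. Percent activity versus positive/negative controls from 480/540 nm fluorescence; EC50 by non-linear regression.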

[3] = target: T2, TRPML3 (Homo sapiens, UniProt Q8TDD5); test: Fluorescent TRPML3 assay (performed as for TRPML1, substituting the TRPML3 subtype)
T2 construct: expressed in transfected cells
T2 sequence (Q8TDD5 1-553): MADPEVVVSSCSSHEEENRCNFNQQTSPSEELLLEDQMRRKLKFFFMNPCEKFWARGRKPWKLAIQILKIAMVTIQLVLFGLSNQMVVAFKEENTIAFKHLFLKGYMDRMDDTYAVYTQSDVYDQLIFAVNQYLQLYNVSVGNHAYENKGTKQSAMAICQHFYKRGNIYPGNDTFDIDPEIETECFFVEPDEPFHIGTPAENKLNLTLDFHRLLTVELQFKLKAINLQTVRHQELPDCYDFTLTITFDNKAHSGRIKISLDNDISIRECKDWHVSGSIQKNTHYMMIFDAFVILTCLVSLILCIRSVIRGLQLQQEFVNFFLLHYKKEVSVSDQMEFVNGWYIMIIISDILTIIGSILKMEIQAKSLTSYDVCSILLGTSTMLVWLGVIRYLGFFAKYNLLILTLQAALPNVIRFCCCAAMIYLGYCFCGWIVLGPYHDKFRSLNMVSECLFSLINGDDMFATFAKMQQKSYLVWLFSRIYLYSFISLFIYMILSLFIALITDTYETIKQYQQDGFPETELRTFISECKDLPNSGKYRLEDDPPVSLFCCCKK
Method in brief: as §1

Sequence of TRPML1 (Q9GZU1 whole entry L15A/L16A/L577A/L578A, form open): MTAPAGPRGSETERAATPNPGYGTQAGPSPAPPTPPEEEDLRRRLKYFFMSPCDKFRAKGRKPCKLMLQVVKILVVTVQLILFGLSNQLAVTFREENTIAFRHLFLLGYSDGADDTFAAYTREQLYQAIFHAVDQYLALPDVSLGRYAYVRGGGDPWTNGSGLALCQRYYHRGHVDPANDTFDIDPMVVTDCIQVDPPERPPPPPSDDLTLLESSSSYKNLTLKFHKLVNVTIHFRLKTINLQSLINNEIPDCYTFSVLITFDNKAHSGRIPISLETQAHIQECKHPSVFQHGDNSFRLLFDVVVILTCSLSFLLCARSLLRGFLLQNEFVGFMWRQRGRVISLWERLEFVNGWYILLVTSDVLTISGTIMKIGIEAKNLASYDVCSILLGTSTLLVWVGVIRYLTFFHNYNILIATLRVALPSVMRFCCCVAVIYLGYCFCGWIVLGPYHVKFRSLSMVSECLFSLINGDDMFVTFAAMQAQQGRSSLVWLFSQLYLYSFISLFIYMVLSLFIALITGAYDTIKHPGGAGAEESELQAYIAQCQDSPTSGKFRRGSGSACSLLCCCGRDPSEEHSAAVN

`C[C@@H]1CN(c2ncnc3c2c(N2CCCC2)cn3-c2cccc(Cl)c2)CCN1C(=O)OC(C)(C)C` [Compound 193, tert-butyl (R)-4-(7-(3-chlorophenyl)-5-(pyrrolidin-1-yl)-7H-pyrrolo[2,3-d]pyrimidin-4-yl)-2-methylpiperazine-1-carboxylate] gave a pEC50 [1] greater than 7.00, a pEC50 [2] of 6.30 to 7.00 and a pEC50 [3] greater than 7.00.
Work on `C[C@H]1CN(c2ncnc3c2c(N2CCCC2)cn3-c2cccc(Cl)c2)CCN1C(=O)OC(C)(C)C` [Compound 194, tert-Butyl (S)-4-(7-(3-chlorophenyl)-5-(pyrrolidin-1-yl)-7H-pyrrolo[2,3-d]pyrimidin-4-yl)-2-methylpiperazine-1-carboxylate] yielded a pEC50 [1] of 6.30 to 7.00, a pEC50 [2] of 6.30 to 7.00 and a pEC50 [3] of 6.30 to 7.00.
Work on `C[C@@H]1CN(C(=O)OC(C)(C)C)CCN1c1ncnc2c1c(C1CC1)cn2-c1cccc(OC(F)(F)F)c1` [Compound 195, tert-butyl (R)-4-(5-cyclopropyl-7-(3-(trifluoromethoxy)phenyl)-7H-pyrrolo[2,3-d]pyrimidin-4-yl)-3-methylpiperazine-1-carboxylate] yielded a pEC50 [1] of 6.30 to 7.00, a pEC50 [2] of 6.30 to 7.00 and a pEC50 [3] greater than 7.00.
`C[C@H]1CN(C(=O)OC(C)(C)C)CCN1c1ncnc2c1c(C1CC1)cn2-c1cccc(OC(F)(F)F)c1` [Compound 196, tert-butyl (S)-4-(5-cyclopropyl-7-(3-(trifluoromethoxy)phenyl)-7H-pyrrolo[2,3-d]pyrimidin-4-yl)-3-methylpiperazine-1-carboxylate] was tested, and the pEC50 [1] was greater than 7.00, the pEC50 [2] was 6.30 to 7.00 and the pEC50 [3] was greater than 7.00.
`C[C@@H]1CN(C(=O)OC(C)(C)C)CCN1c1ncnc2c1c(C1CC1)cn2-c1cccc(OC(F)F)c1` [Compound 197, tert-butyl (R)-4-(5-cyclopropyl-7-(3-(difluoromethoxy)phenyl)-7H-pyrrolo[2,3-d]pyrimidin-4-yl)-3-methylpiperazine-1-carboxylate] showed a pEC50 [1] of 6.30 to 7.00, a pEC50 [2] of 6.30 to 7.00 and a pEC50 [3] of 6.30 to 7.00.
Work on `C[C@H]1CN(C(=O)OC(C)(C)C)CCN1c1ncnc2c1c(C1CC1)cn2-c1cccc(OC(F)F)c1` [Compound 198, tert-butyl (S)-4-(5-cyclopropyl-7-(3-(difluoromethoxy)phenyl)-7H-pyrrolo[2,3-d]pyrimidin-4-yl)-3-methylpiperazine-1-carboxylate] yielded a pEC50 [1] greater than 7.00, a pEC50 [2] of 6.30 to 7.00 and a pEC50 [3] greater than 7.00.
With `C[C@@H]1CN(C(=O)OC(C)(C)C)CCN1c1ncnc2c1c(C1CC1)cn2-c1cccc(C#N)c1` [Compound 199, tert-butyl (R)-4-(7-(3-cyanophenyl)-5-cyclopropyl-7H-pyrrolo[2,3-d]pyrimidin-4-yl)-3-methylpiperazine-1-carboxylate] the pEC50 [1] was 6.30 to 7.00, the pEC50 [2] was 6.30 to 7.00 and the pEC50 [3] was 6.30 to 7.00.
In the case of `C[C@H]1CN(C(=O)OC(C)(C)C)CCN1c1ncnc2c1c(C1CC1)cn2-c1cccc(C#N)c1` [Compound 200, tert-butyl (S)-4-(7-(3-cyanophenyl)-5-cyclopropyl-7H-pyrrolo[2,3-d]pyrimidin-4-yl)-3-methylpiperazine-1-carboxylate], the pEC50 [1] was greater than 7.00, the pEC50 [2] was 6.30 to 7.00 and the pEC50 [3] was greater than 7.00.
In the case of `COc1cccc(-n2cc(C3CC3)c3c(N4CCN(C(=O)OC(C)(C)C)C[C@H]4C)ncnc32)c1` [Compound 201, tert-butyl (R)-4-(5-cyclopropyl-7-(3-methoxyphenyl)-7H-pyrrolo[2,3-d]pyrimidin-4-yl)-3-methylpiperazine-1-carboxylate], the pEC50 [1] was 6.30 to 7.00, the pEC50 [2] was 5.70 to 6.30 and the pEC50 [3] was 6.30 to 7.00.
Compound `COc1cccc(-n2cc(C3CC3)c3c(N4CCN(C(=O)OC(C)(C)C)C[C@@H]4C)ncnc32)c1` [Compound 202, tert-butyl (S)-4-(5-cyclopropyl-7-(3-methoxyphenyl)-7H-pyrrolo[2,3-d]pyrimidin-4-yl)-3-methylpiperazine-1-carboxylate] has a pEC50 [1] of 6.30 to 7.00, a pEC50 [2] of 5.70 to 6.30 and a pEC50 [3] of 6.30 to 7.00.
`C[C@H]1CN(C(=O)OC(C)(C)C)CCN1c1ncnc2c1c(C1CC1)cn2-c1cc(F)cc(F)c1` [Compound 203, tert-butyl (S)-4-(5-cyclopropyl-7-(3,5-difluorophenyl)-7H-pyrrolo[2,3-d]pyrimidin-4-yl)-3-methylpiperazine-1-carboxylate] was tested, and the pEC50 [1] was greater than 7.00, the pEC50 [2] was 6.30 to 7.00 and the pEC50 [3] was greater than 7.00.
Compound `C[C@@H]1CN(c2ncnc3c2c(C2CC2)cn3-c2cc(F)c(F)c(F)c2)CCN1C(=O)OC(C)(C)C` [Compound 204, tert-butyl (R)-4-(5-cyclopropyl-7-(3,4,5-trifluorophenyl)-7H-pyrrolo[2,3-d]pyrimidin-4-yl)-2-methylpiperazine-1-carboxylate] has a pEC50 [1] greater than 7.00, a pEC50 [2] of 6.30 to 7.00 and a pEC50 [3] greater than 7.00.
With `C[C@@H]1CN(c2ncnc3c2c(C2CC2)cn3-c2cccc(F)c2F)CCN1C(=O)OC(C)(C)C` [Compound 205, tert-butyl (R)-4-(5-cyclopropyl-7-(2,3-difluorophenyl)-7H-pyrrolo[2,3-d]pyrimidin-4-yl)-2-methylpiperazine-1-carboxylate] the pEC50 [1] was 6.30 to 7.00, the pEC50 [2] was 5.70 to 6.30 and the pEC50 [3] was 6.30 to 7.00.
`C[C@@H]1CN(c2ncnc3c2c(C2CC2)cn3-c2cc(F)ccc2F)CCN1C(=O)OC(C)(C)C` [Compound 206, tert-butyl (R)-4-(5-cyclopropyl-7-(2,5-difluorophenyl)-7H-pyrrolo[2,3-d]pyrimidin-4-yl)-2-methylpiperazine-1-carboxylate] was tested, and the pEC50 [1] was greater than 7.00, the pEC50 [2] was 5.70 to 6.30 and the pEC50 [3] was 6.30 to 7.00.
Work on `C[C@@H]1CN(c2ncnc3c2c(C2CC2)cn3-c2cc(F)c(F)c(Cl)c2)CCN1C(=O)OC(C)(C)C` [Compound 207, tert-butyl (R)-4-(7-(3-chloro-4,5-difluorophenyl)-5-cyclopropyl-7H-pyrrolo[2,3-d]pyrimidin-4-yl)-2-methylpiperazine-1-carboxylate] yielded a pEC50 [1] greater than 7.00, a pEC50 [2] of 6.30 to 7.00 and a pEC50 [3] greater than 7.00.
With `C[C@@H]1CN(c2ncnc3c2c(C2CC2)cn3-c2ccc(F)c(Cl)c2)CCN1C(=O)OC(C)(C)C` [Compound 208, tert-butyl (R)-4-(7-(3-chloro-4-fluorophenyl)-5-cyclopropyl-7H-pyrrolo[2,3-d]pyrimidin-4-yl)-2-methylpiperazine-1-carboxylate] the pEC50 [1] was greater than 7.00, the pEC50 [2] was 6.30 to 7.00 and the pEC50 [3] was greater than 7.00.
For `C[C@@H]1CN(C(=O)OC(C)(C)C)CCN1c1ncnc2c1c(N1CCCC1)cn2-c1cccc(Cl)c1` [Compound 209, tert-Butyl (R)-4-(7-(3-chlorophenyl)-5-(pyrrolidin-1-yl)-7H-pyrrolo[2,3-d]pyrimidin-4-yl)-3-methylpiperazine-1-carboxylate], the pEC50 [1] was greater than 7.00, the pEC50 [2] was 6.30 to 7.00 and the pEC50 [3] was greater than 7.00.
Work on `C[C@H]1CN(C(=O)OC(C)(C)C)CCN1c1ncnc2c1c(N1CCCC1)cn2-c1cccc(Cl)c1` [Compound 210, tert-Butyl (S)-4-(7-(3-chlorophenyl)-5-(pyrrolidin-1-yl)-7H-pyrrolo[2,3-d]pyrimidin-4-yl)-3-methylpiperazine-1-carboxylate] yielded a pEC50 [1] greater than 7.00, a pEC50 [2] greater than 7.00 and a pEC50 [3] greater than 7.00.
With `C[C@@H]1CN(C(=O)OC(C)(C)C)CCN1c1ncnc2c1c(C1CC1)cn2-c1cc(F)cc(F)c1` [Compound 211, tert-butyl (R)-4-(5-cyclopropyl-7-(3,5-difluorophenyl)-7H-pyrrolo[2,3-d]pyrimidin-4-yl)-3-methylpiperazine-1-carboxylate] the pEC50 [1] was 6.30 to 7.00, the pEC50 [2] was 5.70 to 6.30 and the pEC50 [3] was greater than 7.00.
